Assay results taken from ChEMBL document CHEMBL5346957, “Enantioselective Synthesis and Biological Evaluation of Pyrrolidines Bearing Quaternary Stereogenic Centers” (J Med Chem, 2023).
The source made the active and inactive calls. The calls are words filed in the database; no cut-off is given here.

What was measured:
A549 = experiment: Antiproliferative activity against human A549 cells incubated for 72 hrs measured by MTT assay; format: functional, cell-based; details: A549, 72 h
HCT-116 = experiment: Antiproliferative activity against human HCT-116 cells incubated for 72 hrs measured by MTT assay; format: functional, cell-based; details: HCT-116, 72 h
HepG2 = experiment: Antiproliferative activity against human HepG2 cells incubated for 72 hrs measured by MTT assay; format: functional, cell-based; details: HepG2, 72 h
MDA-MB-231 = experiment: Antiproliferative activity against human MDA-MB-231 cells incubated for 72 hrs measured by MTT assay; format: functional, cell-based; details: MDA-MB-231, 72 h
PC-3 = experiment: Antiproliferative activity against human PC-3 cells incubated for 72 hrs measured by MTT assay; format: functional, cell-based; details: PC-3, 72 h
MIA PaCa-2 = experiment: Antiproliferative activity against human MIA PaCa-2 cells incubated for 72 hrs measured by MTT assay; format: functional, cell-based; details: MIA PaCa-2, 72 h
[1] = Cytotoxicity against human BEAS-2B cells incubated for 72 hrs measured by MTT assay; format: toxicity, cell-based
HeLa = experiment: Antiproliferative activity against human HeLa cells incubated for 72 hrs measured by MTT assay; format: functional, cell-based
A-375 [2] = experiment: Antiproliferative activity against human A-375 cells incubated for 72 hrs measured by MTT assay; format: functional, cell-based; details: A-375, 72 h
Aurora kinase B = Aurora kinase B (Homo sapiens, UniProt Q96GD4); experiment: Inhibition of Aurora B (unknown origin) incubated for 1 hr by microplate reader analysis
A-375 [3] = experiment: Induction of apoptosis in human A-375 cells assessed as apoptotic cells at 0.5 uM measured by annexin V/PI based flow cytometric analysis (reference value: 10.8%); format: functional
A-375 [4] = experiment: Effect on mitotic progression in human A-375 cells assessed as mitotic index at 1 uM measured by flow cytometric analysis (reference value: 3.22%); format: functional
A-375 [5] = experiment: Effect cycle arrest in human A-375 cells assessed as accumulation of cells in G2/M phase at 2 uM measured by flow cytometric analysis (reference value: 26.76%); format: functional
[6] = molecular target: T1, Aurora kinase A (Homo sapiens) (UniProt O14965); experiment: Inhibition of Aurora A (unknown origin) assessed as downregulation of kinase phosphorylation at 0.5 to 2 uM by Western blot analysis; details: dose 0.5-2 µM
T1 sequence (whole entry): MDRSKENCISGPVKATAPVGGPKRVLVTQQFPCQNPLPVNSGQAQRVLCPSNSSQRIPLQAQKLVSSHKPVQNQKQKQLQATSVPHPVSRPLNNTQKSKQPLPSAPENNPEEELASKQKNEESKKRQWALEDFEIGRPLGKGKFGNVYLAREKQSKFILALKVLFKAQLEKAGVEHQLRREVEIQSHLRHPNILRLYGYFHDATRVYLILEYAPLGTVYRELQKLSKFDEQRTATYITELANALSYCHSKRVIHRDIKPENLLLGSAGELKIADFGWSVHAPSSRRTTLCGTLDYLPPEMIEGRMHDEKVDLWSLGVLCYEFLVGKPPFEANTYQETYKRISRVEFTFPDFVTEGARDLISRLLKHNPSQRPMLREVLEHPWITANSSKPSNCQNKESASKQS

A-375 [7] = experiment: Induction of apoptosis in human A-375 cells assessed as late apoptotic cells at 2 uM measured by annexin V/PI based flow cytometric analysis (reference value: 1.07%); format: functional
Aurora kinase A = molecular target: T2, Aurora kinase A (Homo sapiens, UniProt O14965); experiment: Inhibition of Aurora A (unknown origin) incubated for 1 hr by microplate reader analysis
T2 sequence (O14965 whole entry): T1 sequence (whole entry)

A-375 [8] = experiment: Induction of apoptosis in human A-375 cells assessed as early apoptotic cells at 2 uM measured by annexin V/PI based flow cytometric analysis (reference value: 9.78%); format: functional
A-375 [9] = experiment: Induction of apoptosis in human A-375 cells assessed as apoptotic cells at 2 uM measured by annexin V/PI based flow cytometric analysis (reference value: 10.8%); format: functional
A-375 [10] = experiment: Effect cycle arrest in human A-375 cells assessed as accumulation of cells in G2/M phase at 1 uM measured by flow cytometric analysis (reference value: 26.76%); format: functional
A-375 [11] = experiment: Induction of apoptosis in human A-375 cells assessed as late apoptotic cells at 0.5 uM measured by annexin V/PI based flow cytometric analysis (reference value: 1.07%); format: functional
Aurora kinase C = molecular target: T3, Aurora kinase C (Homo sapiens, UniProt Q9UQB9); experiment: Inhibition of Aurora C (unknown origin) incubated for 1 hr by microplate reader analysis
T3 sequence (Q9UQB9 whole entry): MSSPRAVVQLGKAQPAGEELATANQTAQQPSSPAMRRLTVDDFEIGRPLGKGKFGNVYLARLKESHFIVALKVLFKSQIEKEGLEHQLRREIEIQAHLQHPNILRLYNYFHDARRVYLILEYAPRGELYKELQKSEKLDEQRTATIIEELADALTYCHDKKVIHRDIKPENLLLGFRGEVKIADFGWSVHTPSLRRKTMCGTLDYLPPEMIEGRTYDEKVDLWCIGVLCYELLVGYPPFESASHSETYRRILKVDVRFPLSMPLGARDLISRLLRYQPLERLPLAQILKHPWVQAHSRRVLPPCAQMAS

A-375 [12] = experiment: Induction of apoptosis in human A-375 cells assessed as apoptotic cells at 1 uM measured by annexin V/PI based flow cytometric analysis (reference value: 10.8%); format: functional
A-375 [13] = experiment: Effect on mitotic progression in human A-375 cells assessed as mitotic index at 2 uM measured by flow cytometric analysis (reference value: 3.22%); format: functional
A-375 [14] = experiment: Induction of apoptosis in human A-375 cells assessed as early apoptotic cells at 1 uM measured by annexin V/PI based flow cytometric analysis (reference value: 9.78%); format: functional
A-375 [15] = experiment: Induction of apoptosis in human A-375 cells assessed as early apoptotic cells at 0.5 uM measured by annexin V/PI based flow cytometric analysis (reference value: 9.78%); format: functional
A-375 [16] = experiment: Induction of apoptosis in human A-375 cells assessed as late apoptotic cells at 1 uM measured by annexin V/PI based flow cytometric analysis (reference value: 1.07%); format: functional
A-375 [17] = experiment: Effect cycle arrest in human A-375 cells assessed as accumulation of cells in G2/M phase at 0.5 uM measured by flow cytometric analysis (reference value: 26.76%); format: functional
A-375 [18] = experiment: Effect on mitotic progression in human A-375 cells assessed as mitotic index at 0.5 uM measured by flow cytometric analysis (reference value: 3.22%); format: functional

Aurora kinase B, sequence (Q96GD4 whole entry): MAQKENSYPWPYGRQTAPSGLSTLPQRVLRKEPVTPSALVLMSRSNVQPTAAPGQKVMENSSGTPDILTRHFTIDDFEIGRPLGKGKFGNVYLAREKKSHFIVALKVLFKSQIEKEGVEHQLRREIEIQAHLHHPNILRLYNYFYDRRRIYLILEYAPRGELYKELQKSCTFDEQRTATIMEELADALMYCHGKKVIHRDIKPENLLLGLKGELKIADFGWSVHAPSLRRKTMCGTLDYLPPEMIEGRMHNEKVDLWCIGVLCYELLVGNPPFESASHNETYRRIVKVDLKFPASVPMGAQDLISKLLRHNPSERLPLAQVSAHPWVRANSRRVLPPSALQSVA

IC50 (A549) [µM]	IC50 (HCT-116) [µM]	IC50 (HepG2) [µM]	IC50 (MDA-MB-231) [µM]	IC50 (PC-3) [µM]	IC50 (MIA PaCa-2) [µM]	IC50 (HeLa) [µM]	IC50 (A-375 [2]) [µM]	SMILES	IC50 at 72 h [1] [µM]	other results
> 100	> 100	> 100	> 100	> 100	> 100	> 100	> 100	CCOc1ccc([C@H]2[C@H](C(=O)OC)N[C@H](c3ccccc3)[C@]2(C)[N+](=O)[O-])cc1	> 100	
11.5	12.4	29	16.8	14	21.4	16.5	7.42	CCOc1ccc([C@@H]2[C@@H](C(=O)OC)N[C@@H](c3ccccc3)[C@@]2(C)[N+](=O)[O-])cc1	> 100	
> 100	> 100	> 100	> 100	> 100	> 100	> 100	> 100	CCOc1ccc([C@@H]2[C@@H]([N+](=O)[O-])[C@@H](c3ccccc3)N[C@H]2C(=O)OC)cc1	> 100	
> 100	> 100	> 100	> 100	> 100	> 100	> 100	> 100	CCOc1ccc([C@H]2[C@H]([N+](=O)[O-])[C@H](c3ccccc3)N[C@@H]2C(=O)OC)cc1	> 100	
0.51	0.73	1.67	0.43	0.4	1.07	0.96	0.24	CCOc1ccc([C@H]2[C@](C)([N+](=O)[O-])[C@H](c3ccccc3)N[C@]2(C)C(=O)OC)cc1	> 100	IC50 (Aurora kinase B): Not Active; Activity (A-375 [3]): 22.7%; Activity (A-375 [4]): 10.82%; Activity (A-375 [5]): 68.69%; inhibition [6]: Active; Activity (A-375 [7]): 17.8%; IC50 (Aurora kinase A): 0.284 µM; Activity (A-375 [8]): 19.8%; Activity (A-375 [9]): 37.6%; Activity (A-375 [10]): 54.46%; Activity (A-375 [11]): 9.23%; IC50 (Aurora kinase C): Not Active; Activity (A-375 [12]): 35%; Activity (A-375 [13]): 18.51%; Activity (A-375 [14]): 20.4%; Activity (A-375 [15]): 13.5%; Activity (A-375 [16]): 14.6%; Activity (A-375 [17]): 32.73%; Activity (A-375 [18]): 6.24%
49.2	74.7	> 100	34.7	32.5	> 100	82.8	26.8	CCOc1ccc([C@@H]2[C@@](C)([N+](=O)[O-])[C@@H](c3ccccc3)N[C@@]2(C)C(=O)OC)cc1	> 100	
> 100	> 100	> 100	> 100	> 100	> 100	> 100	> 100	CCOc1ccc([C@H]2[C@H]([N+](=O)[O-])[C@H](c3ccccc3)N[C@]2(C)C(=O)OC)cc1	> 100	
> 100	> 100	> 100	> 100	> 100	> 100	> 100	> 100	CCOc1ccc([C@@H]2[C@@H]([N+](=O)[O-])[C@@H](c3ccccc3)N[C@@]2(C)C(=O)OC)cc1	> 100	
